# Assay results reported in article PMC7721897, “Metabolism and pharmacokinetics of a novel polyphenol fatty acid ester phloridzin docosahexaenoate in Balb/c female mice” (Scientific Reports, 2020).
# How the values were obtained:
# [1] = In vitro phase II metabolism with mouse hepatic microsomes and SAM, UDPGA or PAPS; assay type: in vitro ADME; conditions: PZ-DHA 1.1 µM, SAM, 1 h, 37 °C
# Description: Figure 3 PZ-DHA undergoes phase II metabolism in the presence of freshly prepared mouse liver microsomes. PZ-DHA (1.1 µM) was incubated with S-(5′-adenosyl)-L-methionine chloride dihydrochloride (1 mM), […] (2 mM) and alamethicin (25 µg/mL) and adenosine 3′-phosphate 5′-phosphosulfate lithium salt, hydrate (0.5 mM) in the presence of mouse liver microsomal enzymes (3 mg/mL) at 37 °C for 1 h. (A) Tri-methylated-PZ-DHA (4,4′,6′-tri-O-methyl-phloridzin docosahexaenoate) (MW = 788.88 g/mol), (B) phloridzin docosahexaenoate-4-O-glucuronide (MW = 923.02 g/mol) and phloridzin docosahexaenoate-4′-O-glucuronide (MW = 923.02 g/mol), and (C) sulfated-PZ-DHA (phloridzin docosahexaenoate-4,4′-di-O-sulphide) metabolite (MW = 906.20 g/mol) were identified.
# Mouse hepatic microsomes were freshly isolated from the livers of male C57BL/6 mice, and the entire extraction procedure was carried out at 4 °C. Mouse livers were minced and homogenized in KCl/sucrose phosphate buffer (0.154 M KCl, 0.25 M sucrose in 50 mM potassium phosphate buffer (K2HPO4/KH2PO4) (PPB), pH 7.5). […] The protein concentration was determined using a Bradford assay (R^2 = 1.00), and microsomes were stored at − 80 °C.
# Potential in vitro phase I and phase II metabolites of PZ-DHA were detected by incubating PZ-DHA in the presence of freshly-prepared mouse hepatic microsome preparations. Phase I metabolites were determined by incubating 1.1 µM PZ-DHA with 100 mM NADPH in the presence of mouse hepatic microsomes for 1 h at 37 °C. Phase II methylation, glucuronidation, and sulphation of PZ-DHA was determined by incubating 1.1 µM PZ-DHA with 1 mM SAM, 2 mM UDPGA, and 0.5 mM PAPS, respectively, in the presence of freshly prepared mouse hepatic microsome for 1 h at 37 °C (Supplementary information Tables S1–S4). […]
# PZ-DHA and/or PZ-DHA metabolites in malignant/non-malignant epithelial cell lysates, in vitro microsome enzyme reaction mixtures, and mouse serum aliquots were determined using UPLC-ESI–MS/MS instrument (Waters Limited, Mississauga, ON, Canada). […]
# [2] = Tissue distribution of PZ-DHA and metabolites after intraperitoneal injection; assay type: in vivo, Balb/c female mice; conditions: PZ-DHA 100 mg/kg intraperitoneal
# Description: Figure 5 PZ-DHA and metabolites were detected in various organs of PZ-DHA-treated Balb/c female mice. PZ-DHA (100 mg/kg) was administered by intraperitoneal injection to Balb/c female mice and liver, lungs, kidneys, spleen and brain were harvested. Organs were homogenized and PZ-DHA in (A) liver, kidneys, lungs, spleen, and brain was identified and quantified using a calibration curve. The abundance of (B) 4,4′,6′-tri-O-methyl-phloridzin docosahexaenoate in liver, kidneys, lungs, and serum) and (C) phloridzin docosahexaenoate-4,4′-di-O-sulphide in the liver was determined in PZ-DHA equivalence.
# (§1) Pharmacokinetic parameters and in vivo generation of PZ-DHA metabolites were studied using Balb/c female mice. Mice were randomly divided into six groups (n = 4/group) and PZ-DHA (100 mg/kg) was administered by intraperitoneal injection. For each mouse, a single blood collection was performed by cardiac puncture at one of six different time points (t = 15, 30, 60, 90, 120, and 240 min). At the end of blood collection, mice were euthanized by cervical dislocation and organs (liver, lungs, kidneys, spleen, and brain) were harvested. Blood samples were allowed to clot by leaving undisturbed at room temperature for 1 h, and serum was separated by centrifuging at 2000×g for 10 min at 4 °C. The serum was carefully removed and stored on ice until further processing. Serum proteins were precipitated by incubating an aliquot of serum with a mixture of acetonitrile:acetone (80:20) containing 0.1 mg/mL quercetin (internal standard) at 4 °C overnight. The supernatant was separated by centrifuging at 14,000×g for 10 min at 4 °C. Excess solvent was evaporated using nitrogen flush and mixed with methanol and filtered. PZ-DHA-metabolites in the filtrate were identified using a UPLC-ESI–MS/MS (Waters Limited, Mississauga, ON, Canada). Organs were homogenized in PBS (1:5 w/v). Supernatants were collected by centrifugation at 14,000 × g for 15 min at 4 °C. Proteins were precipitated by incubating in acetonitrile:acetone (80:20) containing 0.1 mg/mL quercetin (internal standard) at 4 °C overnight. Supernatants were treated as explained above, and PZ-DHA and/or PZ-DHA-metabolites were identified.
# [3] = tested on: mammary carcinoma cells and mammary epithelial cells; test: Cellular uptake assay, all cell lines together; assay type: cell-based, human and mouse; conditions: all cell lines, 20 μM, 72 h
# Description: Figure 1 Conjugation of PZ with DHA increases the cellular uptake and stability of PZ and DHA. The cells were treated with 20 μM of PZ, DHA or PZ-DHA and cultured for 72 h at 37 °C. Cells were harvested and washed thoroughly using cold PBS. Cells were lysed in cold acetone containing 0.05 mg/mL quercetin, and cell lysates were collected by centrifugation and analyzed by using UPLC-ESI-MS/MS. (A) mean % cellular uptake of PZ, DHA and PZ-DHA. (B) fold increase in intracellular PZ and DHA when conjugated. ANOVA multiple means statistical comparison method was performed and differences among means were compared using Tukey’s test; *p < 0.05. (MDA-MB-231 p = 0.008; MDA-MB-468 p = 0.01; 4T1 p = 0.02; MCF-7 p = 0.01; MCF-10A p = 0.0005).
# Cells were seeded at a density of 3 × 10^5 cells (MDA-MB-231, MDA-MB-468, MCF-7, and MCF-10A) or 1 × 10^5 cells (4T1) /T-75 flask. The cells were cultured overnight to promote cell adhesion. Adherent cells were treated with a sub-cytotoxic concentration (20 μM) of PZ, DHA or PZ-DHA and cultured for 72 h at 37 °C. The supernatant was carefully removed, and cell monolayers were washed with cold PBS. Cells were harvested using TrypLE Express and washed thoroughly with cold PBS. The cell pellet was resuspended in 3 mL of cold acetone containing 0.05 mg/mL quercetin as the internal standard, and incubated overnight at 4 °C. Cell lysates were collected by centrifugation at 14,000×g for 15 min at 4 °C and samples were concentrated by evaporating acetone under a stream of nitrogen gas. Dry pellets were reconstituted in methanol and filtered. The sample was analyzed using a UPLC/ESI/MS system. The percentage cell uptake of the total dose was quantified using standard curves of PZ (R^2 = 0.99), DHA (R^2 = 0.98) or PZ-DHA (R^2 = 0.99) made in methanol.
# (§2) PZ-DHA and/or PZ-DHA metabolites in malignant/non-malignant epithelial cell lysates, in vitro microsome enzyme reaction mixtures, and mouse serum aliquots were determined using UPLC-ESI–MS/MS instrument (Waters Limited, Mississauga, ON, Canada). All mass spectroscopic analyses were performed using mass scan (full-scan, identification of unknowns) and single ion monitoring (SIM; quantification of PZ, DHA, PZ-DHA, and quercetin) modes of a Waters H-class UPLC separations module coupled with a Micromass Quattro micro API MS/MS system and MassLynx V4.0 control software. An Allure biphenyl column (100 mm × 2.1 mm, 1.8 μm, Restek Pure Chromatography, Bellefonte, PA, USA) and a flow rate of 0.3 mL/min were employed. ESI- mode with a capillary voltage of 3000 V and a nebulizer gas (N2) temperature of 375 °C were used. A volume of 2 µL sample was injected.
# [4] = tested on: mammary carcinoma cells, including MDA-MB-231 and 4T1; parameters: method as in PMID 31473253; conditions: 20 µM for PZ-DHA; cited from earlier work
# [5] = In vitro phase I metabolism with mouse hepatic microsomes and NADPH; assay type: in vitro ADME; conditions: PZ-DHA 1.1 µM, 100 mM NADPH, 1 h, 37 °C
# Description: Figure 2 PZ-DHA undergoes phase I metabolism in the presence of freshly prepared mouse liver microsomes. PZ-DHA (1.1 µM) was incubated with 100 mM NADPH in the presence of mouse liver microsome for 1 h at 37 °C. Metabolites from PZ-DHA (A) hydrolysis, (B) and (C) hydroxylation, and (D) epoxidation were identified.
# Mouse hepatic microsomes were freshly isolated from the livers of male C57BL/6 mice, and the entire extraction procedure was carried out at 4 °C. Mouse livers were minced and homogenized in KCl/sucrose phosphate buffer (0.154 M KCl, 0.25 M sucrose in 50 mM potassium phosphate buffer (K2HPO4/KH2PO4) (PPB), pH 7.5). Cell/tissue debris was separated out by centrifuging homogenized livers at 12,000×g for 22 min at 4 °C. The supernatant was collected and centrifuged at 100,000×g for 70 min at 4 °C. The pellet was gently rinsed using 50 mM PPB and resuspended in glycerol/phosphate buffer (20% glycerol (v/v), 80% 0.1 M PPB pH 7.5). The protein concentration was determined using a Bradford assay (R^2 = 1.00), and microsomes were stored at − 80 °C.
# Potential in vitro phase I and phase II metabolites of PZ-DHA were detected by incubating PZ-DHA in the presence of freshly-prepared mouse hepatic microsome preparations. Phase I metabolites were determined by incubating 1.1 µM PZ-DHA with 100 mM NADPH in the presence of mouse hepatic microsomes for 1 h at 37 °C. Phase II methylation, glucuronidation, and sulphation of PZ-DHA was determined by incubating 1.1 µM PZ-DHA with 1 mM SAM, 2 mM UDPGA, and 0.5 mM PAPS, respectively, in the presence of freshly prepared mouse hepatic microsome for 1 h at 37 °C (Supplementary information Tables S1–S4). To assess the efficiency of the metabolic process, controls (no PZ-DHA control, no mouse hepatic microsome control and no co-factor control) were incubated in parallel to the test. Reactions were terminated by adding a mixture of 4 mL ice-cold acetonitrile:acetone (80:20) containing 0.05 mg/mL quercetin as the internal standard. Proteins were precipitated by incubating the reaction mixture at 4 °C overnight and separated by centrifuging at 14,000 × g for 15 min at 4 °C. Supernatants were concentrated under nitrogen flush, filtered and PZ-DHA and/or PZ-DHA metabolites were identified using a UPLC-ESI–MS/MS system (Waters Limited, Mississauga, ON, Canada).
# as §2
# [6] = Serum pharmacokinetics after intraperitoneal injection; assay type: in vivo, Balb/c female mice; conditions: PZ-DHA 100 mg/kg intraperitoneal, serum
# Description: Figure 4 Intraperitoneal administration of PZ-DHA results in absorption into the systemic circulation of Balb/c female mice. PZ-DHA (100 mg/kg) was administered by intraperitoneal injection to Balb/c female mice. Blood collection was performed and serum was separated. PZ-DHA was identified and quantified using a calibration curve (R^2 = 0.99) generated using a standard series of PZ-DHA concentrations made in mouse serum. PZ-DHA concentration was plotted against time. The elimination rate of PZ-DHA was determined using a semi-log curve of PZ-DHA concentration vs. time curve.
# as §1
# A calibration curve (R^2 = 0.99) generated using a standard series of PZ-DHA concentrations prepared in mouse serum (spiked with 0.1 mg/mL quercetin) was used for the quantification of PZ-DHA. The average PZ-DHA concentrations were plotted against time. The maximum serum concentration of serum (Cmax) and the time to reach Cmax (Tmax) were read directly from the graph. The linear trapezoidal method was used to calculate the area under the curve (AUC) from t = 0 to infinity, the biological half-life of PZ-DHA (t1/2), determined using the plotted curve in Graphpad Prism software (version 5; La Jolla, CA, USA). The clearance following IP administration was determined by non-compartmental analysis using the relationship CL/F = D/AUC. The elimination rate constant λ was determined by linear regression of the elimination phase of the semi-log transformed concentration versus time curve. The t1/2 was calculated using the formula 0.693/λ and the volume of distribution Vd/F from the formula Vd/F = CL/(F*λ).
# human plasma proteins = conditions: ref Boulton et al.; cited from earlier work
compound,measurement,setting,value
"CC/C=C\C/C=C\C/C=C\C/C=C\C/C=C\C/C=C\CCC(=O)OC[C@H]1O[C@@H](Oc2cc(OC)cc(OC)c2C(=O)CCc2ccc(OC)cc2)[C@H](O)[C@@H](O)[C@@H]1O [4,4′,6′-tri-O-methyl-phloridzin docosahexaenoate]",phase II metabolite of PZ-DHA identified,[1],identified
same,"time at which the metabolite reached the maximum concentration, post-injection",[2]; all organs except for serum,< 1 h
same,metabolite detection in tissue after PZ-DHA,"[2]; liver, lungs, and kidneys",detected
same,metabolite concentration in serum throughout the experimental period,[2]; serum,remained constant
same,metabolite detection in tissue after PZ-DHA,[2]; spleen or brain,not found
"CC/C=C\C/C=C\C/C=C\C/C=C\C/C=C\C/C=C\CCC(=O)O [DHA, docosahexaenoic acid, reference compound]","cellular uptake (as a % of the dose), in words",[3],very low
same,migration and invasion of mammary carcinoma cells,[4],to a lesser extent than PZ-DHA
same,phase I metabolite of PZ-DHA identified,[5],identified
same,phase I metabolite in serum after PZ-DHA,[6],detection
"O=C(CCc1ccc(O)cc1)c1c(O)cc(O)cc1O[C@@H]1O[C@H](CO)[C@@H](O)[C@H](O)[C@H]1O [PZ, phloridzin]","cellular uptake (as a % of the dose), in words",[3],very low
same,migration and invasion of mammary carcinoma cells,[4],to a lesser extent than PZ-DHA
same,phase I metabolite of PZ-DHA identified,[5],identified
same,phase I metabolite in serum after PZ-DHA,[6],detection
O=C(CCc1ccc(O)c(O)c1)c1c(O)cc(O)cc1O[C@@H]1O[C@H](CO)[C@@H](O)[C@H](O)[C@H]1O [3-hydroxy-phloridzin],phase I metabolite of PZ-DHA identified,[5],identified
tri-epoxy-phloridzin docosahexaenoate,phase I metabolite of PZ-DHA identified,[5],identified
CC/C=C\C/C=C\C/C=C\C/C=C\C/C=C\C/C=C\CCC(=O)OC[C@H]1O[C@@H](Oc2cc(O)cc(O)c2C(=O)CCc2ccc(O[C@@H]3O[C@H](C(=O)O)[C@@H](O)[C@H](O)[C@H]3O)cc2)[C@H](O)[C@@H](O)[C@@H]1O [phloridzin docosahexaenoate-4-O-glucuronide],phase II metabolite of PZ-DHA identified,[1],identified
CC/C=C\C/C=C\C/C=C\C/C=C\C/C=C\C/C=C\CCC(=O)OC[C@H]1O[C@@H](Oc2cc(O[C@@H]3O[C@H](C(=O)O)[C@@H](O)[C@H](O)[C@H]3O)cc(O)c2C(=O)CCc2ccc(O)cc2)[C@H](O)[C@@H](O)[C@@H]1O [phloridzin docosahexaenoate-4′-O-glucuronide],phase II metabolite of PZ-DHA identified,[1],identified
CC/C=C\C/C=C\C/C=C\C/C=C\C/C=C\C/C=C\CCC(=O)OC[C@H]1O[C@@H](Oc2cc(O)cc(O)c2C(=O)CCc2ccc(O)c(O)c2)[C@H](O)[C@@H](O)[C@@H]1O [3-hydroxy-phloridzin docosahexaenoate],phase I metabolite of PZ-DHA identified,[5],identified
O=c1c(O)c(-c2ccc(O)c(O)c2)oc2cc(O)cc(O)c12 [quercetin],bound to human plasma proteins,human plasma proteins,99.1%
same,freely available in the plasma,human plasma proteins,0.9%
